Results: ChEMBL document CHEMBL1201861, “Genomics of Drug Sensitity in Cancer screening data, Wellcome Trust Sanger Institute”

Tests used:
Test in all cases: cells
Conditions in all cases: Homo sapiens
UACC-257 = type: functional, cell-based
Description: SANGER: Inhibition of human UACC-257 cell growth in a cell viability assay.

HT = type: functional, cell-based
Description: SANGER: Inhibition of human HT cell growth in a cell viability assay.

LB831-BLC = type: functional, cell-based;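 further: growth inhibition of LB831-BLC cells, read out with a cell viability assay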
Description: SANGER: Inhibition of human LB831-BLC cell growth in a cell viability assay.

ETK-1 = type: functional, cell-based;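 further: growth inhibition of human ETK-1 cells, read out with a cell viability assay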
Description: SANGER: Inhibition of human ETK-1 cell growth in a cell viability assay.

GT3TKB = type: functional, cell-based;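 further: growth inhibition of the cell line, read out with a cell viability assay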
Description: SANGER: Inhibition of human GT3TKB cell growth in a cell viability assay.

CCRF-CEM = type: functional, cell-based;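 further: inhibition of CCRF-CEM cell growth, measured by a cell viability assay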
Description: SANGER: Inhibition of human CCRF-CEM cell growth in a cell viability assay.

MMAC-SF = type: functional, cell-based;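 further: growth inhibition of human MMAC-SF cells, read out with a cell viability assay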
Description: SANGER: Inhibition of human MMAC-SF cell growth in a cell viability assay.

NB69 = type: functional, cell-based;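 further: growth inhibition of NB69 cells, determined by a cell viability assay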
Description: SANGER: Inhibition of human NB69 cell growth in a cell viability assay.

RPMI-8866 = type: functional, cell-based
Description: SANGER: Inhibition of human RPMI-8866 cell growth in a cell viability assay.

LS-411N = type: functional, cell-based
ML-2 = type: functional, cell-based;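 further: growth inhibition of ML-2 cells, measured with a cell viability readout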
Description: SANGER: Inhibition of human ML-2 cell growth in a cell viability assay.

ONS-76 = type: functional, cell-based;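 further: growth inhibition of human ONS-76 cells, read out with a cell viability assay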
Description: SANGER: Inhibition of human ONS-76 cell growth in a cell viability assay.

A101D = type: functional, cell-based;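 further: growth inhibition of the cell line, measured with a viability assay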
Description: SANGER: Inhibition of human A101D cell growth in a cell viability assay.

DMS-114 = type: functional, cell-based
JVM-3 = type: functional, cell-based;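 further: growth inhibition of human JVM-3 cells, read out with a cell viability assay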
Description: SANGER: Inhibition of human JVM-3 cell growth in a cell viability assay.

ES1 = type: functional, cell-based;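 further: growth inhibition of ES1 cells, read out with a cell viability assay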
Description: SANGER: Inhibition of human ES1 cell growth in a cell viability assay.

SHP77 = type: functional, cell-based, SHP-77;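 further: growth inhibition of human SHP-77 cells measured by a cell viability assay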
Description: SANGER: Inhibition of human SHP-77 cell growth in a cell viability assay.

NCI-H1395 = type: functional, cell-based;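 further: cell viability assay read-out quantifying reduced proliferation of human NCI-H1395 cells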
Description: SANGER: Inhibition of human NCI-H1395 cell growth in a cell viability assay.

A388 = type: functional, cell-based;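 further: growth inhibition of human A388 cells, read out with a cell viability assay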
Description: SANGER: Inhibition of human A388 cell growth in a cell viability assay.

LOX IMVI = type: functional, cell-based
Description: SANGER: Inhibition of human LOXIMVI cell growth in a cell viability assay.

DOHH-2 = type: functional, cell-based;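 further: growth inhibition of human DOHH-2 cells, read out with a cell viability assay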
Description: SANGER: Inhibition of human DOHH-2 cell growth in a cell viability assay.

KNS-81-FD = type: functional, cell-based;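 further: growth inhibition of KNS-81-FD cells, read out with a cell viability assay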
Description: SANGER: Inhibition of human KNS-81-FD cell growth in a cell viability assay.

C2BBe1 = type: functional, cell-based;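 further: growth inhibition of C2BBe1 cells, read out through a viability assay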
Description: SANGER: Inhibition of human C2BBe1 cell growth in a cell viability assay.

MFH-ino = type: functional, cell-based;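 further: growth inhibition of human MFH-ino cells, read out by a cell viability assay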
Description: SANGER: Inhibition of human MFH-ino cell growth in a cell viability assay.

ACN = type: functional, cell-based;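 further: growth inhibition of the human ACN cell line, read out via cell viability testing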
Description: SANGER: Inhibition of human ACN cell growth in a cell viability assay.

K562 = type: functional, cell-based
Description: SANGER: Inhibition of human K-562 cell growth in a cell viability assay.

KLE = type: functional, cell-based;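 further: growth inhibition of human KLE cells, read out with a cell viability assay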
Description: SANGER: Inhibition of human KLE cell growth in a cell viability assay.

COLO-668 = type: functional, cell-based
Description: SANGER: Inhibition of human COLO-668 cell growth in a cell viability assay.

SF-126 = type: functional, cell-based;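 further: growth inhibition of human SF126 cells, read out with a cell viability assay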
Description: SANGER: Inhibition of human SF126 cell growth in a cell viability assay.

SK-PN-DW = type: functional, cell-based;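 further: growth inhibition measured with a viability assay on these cells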
Description: SANGER: Inhibition of human SK-PN-DW cell growth in a cell viability assay.

ES4 = type: functional, cell-based;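 further: growth inhibition of human ES4 cells, read out by a cell viability assay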
Description: SANGER: Inhibition of human ES4 cell growth in a cell viability assay.

NB5 = type: functional, cell-based;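 further: growth inhibition of NB5 cells, read out as cell viability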
Description: SANGER: Inhibition of human NB5 cell growth in a cell viability assay.

TE-6 = type: functional, cell-based;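 further: growth inhibition of TE-6 cells, read out with a cell viability assay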
Description: SANGER: Inhibition of human TE-6 cell growth in a cell viability assay.

BB65-RCC = type: functional, cell-based;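 further: growth inhibition of the cell line, measured with a cell viability assay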
Description: SANGER: Inhibition of human BB65-RCC cell growth in a cell viability assay.

SNB-75 = type: functional, cell-based;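 further: cell viability assay measuring growth inhibition of human SNB-75 cells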
Description: SANGER: Inhibition of human SNB75 cell growth in a cell viability assay.

LXF-289 cell line = type: functional, cell-based
Description: SANGER: Inhibition of human LXF-289 cell growth in a cell viability assay.

COLO-824 = type: functional, cell-based
Description: SANGER: Inhibition of human COLO-824 cell growth in a cell viability assay.

DU-4475 = type: functional, cell-based
Description: SANGER: Inhibition of human DU-4475 cell growth in a cell viability assay.

TGBC24TKB = type: functional, cell-based;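 further: growth inhibition of human TGBC24TKB cells, read out with a cell viability assay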
Description: SANGER: Inhibition of human TGBC24TKB cell growth in a cell viability assay.

L-428 = type: functional, cell-based
Description: SANGER: Inhibition of human L-428 cell growth in a cell viability assay.

OCI-AML2 = type: functional, cell-based;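 further: growth inhibition of OCI-AML2 cells, read out with a cell viability assay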
Description: SANGER: Inhibition of human OCI-AML2 cell growth in a cell viability assay.

SW 954 = type: functional, cell-based;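 further: growth inhibition of SW954 human cancer cells, read out as cell viability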
Description: SANGER: Inhibition of human SW954 cell growth in a cell viability assay.

SNU-C2B = type: functional, cell-based;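 further: cell viability readout used to measure compound-driven suppression of SNU-C2B cell proliferation, IC50 marking half-maximal growth inhibition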
Description: SANGER: Inhibition of human SNU-C2B cell growth in a cell viability assay.

LB1047-RCC = type: functional, cell-based;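 further: inhibition of cell growth, determined with a cell viability assay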
Description: SANGER: Inhibition of human LB1047-RCC cell growth in a cell viability assay.

NB6 = type: functional, cell-based
Description: SANGER: Inhibition of human NB6 cell growth in a cell viability assay.

KM-H2 = type: functional, cell-based;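 further: growth inhibition of KM-H2 cells, read out by a cell viability assay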
Description: SANGER: Inhibition of human KM-H2 cell growth in a cell viability assay.

HCE-T = type: functional, cell-based;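 further: cell viability assay read-out, reporting inhibition of HCE-T cell growth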
Description: SANGER: Inhibition of human HCE-T cell growth in a cell viability assay.

697 = type: functional, cell-based
Description: SANGER: Inhibition of human 697 cell growth in a cell viability assay.

COLO-829 = type: functional, cell-based
Description: SANGER: Inhibition of human COLO-829 cell growth in a cell viability assay.

KM12 = type: functional, cell-based;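 further: KM12 cell growth inhibition, read out with a cell viability assay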
Description: SANGER: Inhibition of human KM12 cell growth in a cell viability assay.

QIMR-WIL = type: functional, cell-based;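 further: growth inhibition of QIMR-WIL cells, read out with a cell viability assay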
Description: SANGER: Inhibition of human QIMR-WIL cell growth in a cell viability assay.

IA-LM = type: functional, cell-based;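 further: cell viability assay measuring growth inhibition of human IA-LM cells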
Description: SANGER: Inhibition of human IA-LM cell growth in a cell viability assay.

TE-10 = type: functional, cell-based;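 further: growth inhibition of TE-10 cells, measured by a cell viability assay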
Description: SANGER: Inhibition of human TE-10 cell growth in a cell viability assay.

GI-1 = type: functional, cell-based;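 further: growth inhibition of human GI-1 cells, measured with a cell viability readout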
Description: SANGER: Inhibition of human GI-1 cell growth in a cell viability assay.

ES3 = type: functional, cell-based;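 further: growth inhibition of ES3 cells, read out with a cell viability assay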
Description: SANGER: Inhibition of human ES3 cell growth in a cell viability assay.

HuTu80 = type: functional, cell-based, HUTU-80;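 further: growth inhibition of HuTu80 human cells, determined with a cell viability readout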
Description: SANGER: Inhibition of human HUTU-80 cell growth in a cell viability assay.

U-87 MG = type: functional, cell-based, U-87MG ATCC;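 further: growth inhibition of the cells measured with a viability assay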
Description: SANGER: Inhibition of human U-87-MG cell growth in a cell viability assay.

BB30-HNC = type: functional, cell-based;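 further: growth inhibition of the cultured cell line, read out by a cell viability assay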
Description: SANGER: Inhibition of human BB30-HNC cell growth in a cell viability assay.

HCE-4 = type: functional, cell-based;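 further: cell viability assay measuring inhibition of growth in the human HCE-4 cell line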
Description: SANGER: Inhibition of human HCE-4 cell growth in a cell viability assay.

LS-1034 = type: functional, cell-based
Description: SANGER: Inhibition of human LS-1034 cell growth in a cell viability assay.

Ramos-2G6-4C10 = type: functional, cell-based;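 further: growth inhibition of the cell line, measured by a cell viability read-out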
Description: SANGER: Inhibition of human Ramos-2G6-4C10 cell growth in a cell viability assay.

TK-10 = type: functional, cell-based;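 further: growth inhibition of TK-10 cells, read out in a cell viability assay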
Description: SANGER: Inhibition of human TK10 cell growth in a cell viability assay.

A4-Fuk = type: functional, cell-based;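 further: growth inhibition of A4-Fuk cells, read out by a cell viability assay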
Description: SANGER: Inhibition of human A4-Fuk cell growth in a cell viability assay.

MHH-PREB-1 = type: functional, cell-based;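 further: cell viability assay measuring inhibition of proliferation of human MHH-PREB-1 cells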
Description: SANGER: Inhibition of human MHH-PREB-1 cell growth in a cell viability assay.

NCI-H226 = type: functional, cell-based
Description: SANGER: Inhibition of human NCI-H226 cell growth in a cell viability assay.

SMILES: C[C@]12O[C@H](C[C@]1(O)CO)n1c3ccccc3c3c4c(c5c6ccccc6n2c5c31)CNC4=O [LESTAURTINIB]
- IC50 (UACC-257): 532 nM
- IC50 (HT): 1130 nM
- IC50 (LB831-BLC): > 2000 nM
- IC50 (ETK-1): 856 nM
- IC50 (GT3TKB): 389 nM
- IC50 (CCRF-CEM): > 2000 nM
- IC50 (MMAC-SF): 72.1 nM
- IC50 (NB69): 415 nM
- IC50 (RPMI-8866): 123 nM
- IC50 (LS-411N): 322 nM
- IC50 (ML-2): 195 nM
- IC50 (ONS-76): 136 nM
- IC50 (A101D): 67 nM
- IC50 (DMS-114): 1520 nM
- IC50 (JVM-3): 29.2 nM
- IC50 (ES1): 95.3 nM
- IC50 (SHP77): > 2000 nM
- IC50 (NCI-H1395): 281 nM
- IC50 (A388): > 2000 nM
- IC50 (LOX IMVI): 298 nM
- IC50 (DOHH-2): 184 nM
- IC50 (KNS-81-FD): 1480 nM
- IC50 (C2BBe1): 361 nM
- IC50 (MFH-ino): > 2000 nM
- IC50 (ACN): 77.7 nM
- IC50 (K562): > 2000 nM
- IC50 (KLE): > 2000 nM
- IC50 (COLO-668): > 2000 nM
- IC50 (SF-126): 273 nM
- IC50 (SK-PN-DW): 394 nM
- IC50 (ES4): 128 nM
- IC50 (NB5): 471 nM
- IC50 (TE-6): > 2000 nM
- IC50 (BB65-RCC): 23 nM
- IC50 (SNB-75): 1490 nM
- IC50 (LXF-289 cell line): 1020 nM
- IC50 (COLO-824): > 2000 nM
- IC50 (DU-4475): 97.8 nM
- IC50 (TGBC24TKB): > 2000 nM
- IC50 (L-428): > 2000 nM
- IC50 (OCI-AML2): 1070 nM
- IC50 (SW 954): 291 nM
- IC50 (SNU-C2B): 1120 nM
- IC50 (LB1047-RCC): 76.9 nM
- IC50 (NB6): 936 nM
- IC50 (KM-H2): > 2000 nM
- IC50 (HCE-T): 179 nM
- IC50 697: 26.5 nM
- IC50 (COLO-829): 1160 nM
- IC50 (KM12): 37.8 nM
- IC50 (QIMR-WIL): 94.1 nM
- IC50 (IA-LM): > 2000 nM
- IC50 (TE-10): 1480 nM
- IC50 (GI-1): 546 nM
- IC50 (ES3): 125 nM
- IC50 (HuTu80): 649 nM
- IC50 (U-87 MG): > 2000 nM
- IC50 (BB30-HNC): 935 nM
- IC50 (HCE-4): > 2000 nM
- IC50 (LS-1034): > 2000 nM
- IC50 (Ramos-2G6-4C10): 206 nM
- IC50 (TK-10): 251 nM
- IC50 (A4-Fuk): 82.7 nM
- IC50 (MHH-PREB-1): 27.2 nM
- IC50 (NCI-H226): > 2000 nM
